Laboratory results published in PMC7108927, “TYK2 inhibition reduces type 3 immunity and modifies disease progression in murine spondyloarthritis” (The Journal of Clinical Investigation, 2020).
pIC50: −log10 of the molar value.

Key:
Assay in all cases: radiometric kinase assay with peptide substrate
Assay type in all cases: biochemical
JAK1 = JAK1 (Homo sapiens, UniProt P23458)
TYK2 = TYK2 (Homo sapiens, UniProt P29597)
JAK3 = biological target: T1, JAK3 (Homo sapiens, UniProt P52333)
T1 sequence (P52333 1-1124): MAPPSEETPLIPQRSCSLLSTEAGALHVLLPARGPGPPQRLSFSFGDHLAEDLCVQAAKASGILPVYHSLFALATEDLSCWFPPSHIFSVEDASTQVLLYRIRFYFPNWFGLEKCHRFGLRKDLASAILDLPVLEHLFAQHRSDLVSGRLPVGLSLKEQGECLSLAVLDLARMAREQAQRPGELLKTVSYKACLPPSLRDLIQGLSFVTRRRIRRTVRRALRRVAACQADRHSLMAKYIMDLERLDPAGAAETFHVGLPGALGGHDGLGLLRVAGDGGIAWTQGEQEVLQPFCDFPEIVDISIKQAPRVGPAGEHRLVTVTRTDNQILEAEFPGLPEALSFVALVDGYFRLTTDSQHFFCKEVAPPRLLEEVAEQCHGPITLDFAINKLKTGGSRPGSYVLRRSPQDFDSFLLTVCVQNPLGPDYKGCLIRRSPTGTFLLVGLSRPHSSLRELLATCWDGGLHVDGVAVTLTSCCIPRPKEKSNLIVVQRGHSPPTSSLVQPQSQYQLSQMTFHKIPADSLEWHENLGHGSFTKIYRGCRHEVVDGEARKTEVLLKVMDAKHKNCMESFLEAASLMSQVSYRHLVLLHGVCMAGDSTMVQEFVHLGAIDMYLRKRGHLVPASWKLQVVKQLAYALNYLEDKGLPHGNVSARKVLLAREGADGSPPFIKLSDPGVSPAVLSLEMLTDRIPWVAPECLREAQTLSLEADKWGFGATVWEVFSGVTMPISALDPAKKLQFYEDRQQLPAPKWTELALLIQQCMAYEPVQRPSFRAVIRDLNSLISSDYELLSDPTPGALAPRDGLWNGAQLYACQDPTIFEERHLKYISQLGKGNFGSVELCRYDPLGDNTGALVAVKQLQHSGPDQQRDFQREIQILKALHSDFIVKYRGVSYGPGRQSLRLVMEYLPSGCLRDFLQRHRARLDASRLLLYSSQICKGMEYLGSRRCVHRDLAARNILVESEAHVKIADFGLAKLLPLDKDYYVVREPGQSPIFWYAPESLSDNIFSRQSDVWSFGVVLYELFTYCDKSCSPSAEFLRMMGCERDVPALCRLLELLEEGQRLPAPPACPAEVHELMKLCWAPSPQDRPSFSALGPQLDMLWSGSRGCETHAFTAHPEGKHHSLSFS

JAK2 = JAK2 (Homo sapiens, UniProt O60674)
Sequence of JAK2 (O60674 whole entry): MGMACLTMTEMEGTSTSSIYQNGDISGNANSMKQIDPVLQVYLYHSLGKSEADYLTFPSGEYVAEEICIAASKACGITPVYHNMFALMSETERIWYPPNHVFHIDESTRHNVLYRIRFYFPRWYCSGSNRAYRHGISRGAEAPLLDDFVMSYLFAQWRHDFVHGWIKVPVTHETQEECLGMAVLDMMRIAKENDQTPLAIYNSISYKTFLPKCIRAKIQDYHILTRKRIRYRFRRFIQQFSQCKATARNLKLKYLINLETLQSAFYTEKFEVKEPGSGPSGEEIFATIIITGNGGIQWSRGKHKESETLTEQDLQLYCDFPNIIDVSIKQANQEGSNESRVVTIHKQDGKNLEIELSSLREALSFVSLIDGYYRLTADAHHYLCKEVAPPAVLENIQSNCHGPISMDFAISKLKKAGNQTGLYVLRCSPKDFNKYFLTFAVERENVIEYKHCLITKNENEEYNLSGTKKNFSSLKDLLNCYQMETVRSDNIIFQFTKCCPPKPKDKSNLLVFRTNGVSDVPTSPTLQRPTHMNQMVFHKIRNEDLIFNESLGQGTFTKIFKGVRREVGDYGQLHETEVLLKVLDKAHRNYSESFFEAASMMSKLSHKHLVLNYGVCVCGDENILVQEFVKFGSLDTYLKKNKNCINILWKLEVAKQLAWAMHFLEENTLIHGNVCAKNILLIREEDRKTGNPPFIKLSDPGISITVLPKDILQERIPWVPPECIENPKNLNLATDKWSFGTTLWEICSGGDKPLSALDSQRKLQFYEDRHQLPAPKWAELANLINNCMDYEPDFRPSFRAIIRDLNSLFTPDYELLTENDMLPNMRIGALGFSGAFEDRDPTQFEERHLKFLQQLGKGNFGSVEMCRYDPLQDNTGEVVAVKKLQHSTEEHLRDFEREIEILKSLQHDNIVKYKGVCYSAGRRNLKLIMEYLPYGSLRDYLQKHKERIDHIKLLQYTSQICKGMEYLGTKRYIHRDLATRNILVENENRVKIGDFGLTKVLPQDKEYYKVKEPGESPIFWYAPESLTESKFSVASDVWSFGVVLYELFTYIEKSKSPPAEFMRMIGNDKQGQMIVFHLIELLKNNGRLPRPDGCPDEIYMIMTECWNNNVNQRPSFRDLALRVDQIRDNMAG

Sequence of JAK1 (P23458 whole entry): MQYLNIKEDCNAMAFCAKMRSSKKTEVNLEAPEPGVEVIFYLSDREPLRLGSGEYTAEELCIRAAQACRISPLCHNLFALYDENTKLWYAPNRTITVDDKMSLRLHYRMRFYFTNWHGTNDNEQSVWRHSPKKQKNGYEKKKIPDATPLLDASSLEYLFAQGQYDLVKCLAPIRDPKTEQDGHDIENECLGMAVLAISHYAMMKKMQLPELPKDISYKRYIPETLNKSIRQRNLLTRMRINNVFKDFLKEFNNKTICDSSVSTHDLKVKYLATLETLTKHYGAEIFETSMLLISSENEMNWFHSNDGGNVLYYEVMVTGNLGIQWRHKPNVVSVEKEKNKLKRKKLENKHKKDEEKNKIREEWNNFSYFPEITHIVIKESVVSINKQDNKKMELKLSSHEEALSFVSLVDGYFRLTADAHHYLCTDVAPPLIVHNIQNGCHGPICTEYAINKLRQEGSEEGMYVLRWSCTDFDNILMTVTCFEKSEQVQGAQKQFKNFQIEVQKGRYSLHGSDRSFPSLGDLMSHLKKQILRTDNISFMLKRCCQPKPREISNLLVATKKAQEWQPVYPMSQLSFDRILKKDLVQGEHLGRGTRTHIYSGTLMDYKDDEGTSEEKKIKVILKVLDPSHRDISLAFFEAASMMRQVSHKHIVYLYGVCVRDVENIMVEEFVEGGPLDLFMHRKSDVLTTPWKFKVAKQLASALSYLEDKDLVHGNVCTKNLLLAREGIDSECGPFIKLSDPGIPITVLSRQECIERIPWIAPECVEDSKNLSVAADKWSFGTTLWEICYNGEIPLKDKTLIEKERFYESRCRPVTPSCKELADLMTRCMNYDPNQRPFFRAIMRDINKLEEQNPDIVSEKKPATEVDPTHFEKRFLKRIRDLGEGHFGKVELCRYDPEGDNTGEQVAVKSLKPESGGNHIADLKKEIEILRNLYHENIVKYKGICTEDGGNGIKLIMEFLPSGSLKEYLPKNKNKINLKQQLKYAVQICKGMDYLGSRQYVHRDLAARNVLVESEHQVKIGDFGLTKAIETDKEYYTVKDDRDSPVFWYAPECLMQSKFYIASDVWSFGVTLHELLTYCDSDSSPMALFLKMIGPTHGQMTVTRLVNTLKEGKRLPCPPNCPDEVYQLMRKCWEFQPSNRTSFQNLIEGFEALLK
Sequence of TYK2 (P29597 whole entry): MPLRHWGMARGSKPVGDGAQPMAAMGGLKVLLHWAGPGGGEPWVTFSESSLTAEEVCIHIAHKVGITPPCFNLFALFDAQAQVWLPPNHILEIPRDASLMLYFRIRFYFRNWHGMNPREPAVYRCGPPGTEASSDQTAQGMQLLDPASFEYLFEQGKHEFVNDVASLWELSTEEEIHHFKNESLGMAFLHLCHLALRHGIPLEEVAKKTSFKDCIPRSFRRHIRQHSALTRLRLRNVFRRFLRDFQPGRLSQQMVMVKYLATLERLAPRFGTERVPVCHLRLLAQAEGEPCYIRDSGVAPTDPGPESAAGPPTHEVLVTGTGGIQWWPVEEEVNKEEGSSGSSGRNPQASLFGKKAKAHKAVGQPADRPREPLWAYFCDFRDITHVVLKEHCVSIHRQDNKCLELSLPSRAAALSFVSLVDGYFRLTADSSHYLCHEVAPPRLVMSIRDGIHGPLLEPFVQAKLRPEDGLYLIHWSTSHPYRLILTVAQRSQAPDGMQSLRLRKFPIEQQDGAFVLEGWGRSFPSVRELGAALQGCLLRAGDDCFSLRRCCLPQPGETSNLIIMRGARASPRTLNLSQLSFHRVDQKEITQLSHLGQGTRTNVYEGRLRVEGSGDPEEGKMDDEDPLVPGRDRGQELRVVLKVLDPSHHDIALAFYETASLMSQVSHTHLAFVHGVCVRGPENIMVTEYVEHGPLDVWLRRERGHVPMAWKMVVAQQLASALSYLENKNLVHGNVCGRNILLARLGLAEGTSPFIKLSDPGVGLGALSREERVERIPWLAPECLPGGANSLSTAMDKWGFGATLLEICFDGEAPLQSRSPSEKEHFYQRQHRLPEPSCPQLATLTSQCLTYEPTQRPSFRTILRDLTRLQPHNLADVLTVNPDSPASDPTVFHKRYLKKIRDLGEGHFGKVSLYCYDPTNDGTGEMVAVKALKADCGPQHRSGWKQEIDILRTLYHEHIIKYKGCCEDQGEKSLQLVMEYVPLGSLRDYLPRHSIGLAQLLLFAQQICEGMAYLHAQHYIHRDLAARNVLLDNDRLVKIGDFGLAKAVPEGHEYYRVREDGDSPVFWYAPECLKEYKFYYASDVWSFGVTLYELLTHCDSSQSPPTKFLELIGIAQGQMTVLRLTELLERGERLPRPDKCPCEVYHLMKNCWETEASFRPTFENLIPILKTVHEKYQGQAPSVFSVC

pIC50 (JAK1): 7.34
pIC50 (TYK2): 9.68
pIC50 (JAK3): 8.38
pIC50 (JAK2): 7.51
Substance: NDI-031407
